Assay: mn = molality of the nth substance listed, in mol/kg
Conditions: Liquid, Vibrating tube method

[Cl-].[Cl-].[Mg+2] [magnesium chloride] + O
mass density [kg/m3]
Conditions	283.15 K	298.12 K	323.07 K	348.04 K	372.99 K	397.97 K	422.94 K	447.94 K	472.96 K
1050 kPa, m1 = 1	1074.73	1070.86	1061.56	1049.32	1034.76	1017.83	999.03	–	–
1050 kPa, m1 = 5	–	1298.01	1288.53	1278.25	1267.42	1255.66	1243.3	1230.19	–
1100 kPa, m1 = 3	1200.48	1194.98	1185.53	1174.63	1162.6	1149.22	1134.62	1118.93	–
10020 kPa, m1 = 1	1078.32	1074.43	1065.03	1052.8	1038.36	1021.72	1003.28	982.73	960.31
10020 kPa, m1 = 5	–	1300.39	1290.86	1280.63	1269.83	1258.16	1245.98	1232.81	1219.23
10100 kPa, m1 = 3	1203.26	1197.76	1188.36	1177.48	1165.51	1152.27	1137.91	1122.27	1105.72
19970 kPa, m1 = 1	1082.31	1078.17	1068.73	1056.56	1042.33	1025.91	1007.77	987.82	965.92
19970 kPa, m1 = 5	–	1302.84	1293.39	1283.18	1272.48	1260.88	1248.69	1235.76	1222.3
20100 kPa, m1 = 3	1206.45	1200.84	1191.36	1180.55	1168.64	1155.47	1141.36	1126	1109.63
29900 kPa, m1 = 1	1086.21	1081.96	1072.46	1060.31	1046.17	1029.97	1012.16	992.59	971.25
29900 kPa, m1 = 5	–	1305.37	1295.97	1285.71	1275.12	1263.46	1251.46	1238.61	1225.27
30100 kPa, m1 = 3	1209.48	1203.93	1194.33	1183.56	1171.77	1158.76	1144.67	1129.62	1113.5
39830 kPa, m1 = 1	1090.04	1085.7	1076	1063.92	1049.91	1033.96	1016.47	997.27	976.5
39830 kPa, m1 = 5	–	1307.91	1298.44	1288.26	1277.64	1266.15	1254.16	1241.42	1228.28
40100 kPa, m1 = 3	1212.45	1206.91	1197.32	1186.6	1174.82	1162.02	1147.96	1133.07	1117.27
49760 kPa, m1 = 1	1093.73	1089.34	1079.49	1067.47	1053.59	1037.86	1020.62	1001.73	981.41
49760 kPa, m1 = 5	–	1310.34	1300.8	1290.69	1280.15	1268.74	1256.84	1244.17	1231.18
50100 kPa, m1 = 3	1215.49	1209.79	1200.25	1189.47	1177.87	1165.1	1151.23	1136.51	1120.96
59680 kPa, m1 = 1	1097.42	1092.83	1082.98	1070.97	1057.17	1041.6	1024.61	1006.15	986.2
59680 kPa, m1 = 5	–	1312.81	1303.27	1293.17	1282.6	1271.25	1259.41	1246.88	1234.02
60100 kPa, m1 = 3	1218.46	1212.66	1203.13	1192.42	1180.77	1168.09	1154.39	1139.92	1124.6
68120 kPa, m1 = 1	1100.57	1095.78	1085.82	1073.88	1060.13	1044.71	1027.95	1009.73	990.1
68120 kPa, m1 = 5	–	1314.82	1305.22	1295.26	1284.68	1273.36	1261.6	1249.11	1236.38
68600 kPa, m1 = 3	1220.98	1215.18	1205.42	1194.89	1183.21	1170.63	1157.07	1142.62	1127.48

[Cl-].[K+] [potassium chloride] + O
mass density [kg/m3]
Conditions	298.12 K	323.07 K	348.04 K	372.99 K	397.97 K	422.94 K	447.94 K	472.96 K
900 kPa, m1 = 1.06	1044.2	1034.14	1020.74	1004.76	986.31	965.57	942.89	–
900 kPa, m1 = 3.15	1124.07	1112.58	1098.82	1083.32	1065.9	1046.73	1025.62	–
900 kPa, m1 = 4.49	1168.21	1156.09	1142.21	1126.88	1109.9	1091.46	1071.39	–
9900 kPa, m1 = 1.06	1047.96	1037.83	1024.46	1008.64	990.53	970.25	948.08	923.68
9900 kPa, m1 = 3.15	1127.47	1115.91	1102.28	1086.89	1069.71	1050.87	1030.11	1007.94
9900 kPa, m1 = 4.49	1171.42	1159.3	1145.43	1130.26	1113.48	1095.41	1075.5	1054.54
19900 kPa, m1 = 1.06	1052.02	1041.82	1028.51	1012.91	995.11	975.13	953.62	929.93
19900 kPa, m1 = 3.15	1131.16	1119.53	1105.97	1090.74	1073.82	1055.23	1034.96	1013.25
19900 kPa, m1 = 4.49	1174.92	1162.77	1148.98	1133.92	1117.4	1099.54	1080.06	1059.47
29900 kPa, m1 = 1.06	1056.08	1045.67	1032.5	1017.11	999.53	979.97	958.88	935.86
29900 kPa, m1 = 3.15	1134.81	1123.11	1109.59	1094.53	1077.73	1059.51	1039.57	1018.38
29900 kPa, m1 = 4.49	1178.38	1166.16	1152.52	1137.58	1121.12	1103.53	1084.38	1064.17
39900 kPa, m1 = 1.06	1060	1049.58	1036.42	1021.1	1003.82	984.63	963.97	941.62
39900 kPa, m1 = 3.15	1138.35	1126.71	1113.24	1098.25	1081.65	1063.66	1044.09	1023.39
39900 kPa, m1 = 4.49	1181.79	1169.63	1155.93	1141.11	1124.86	1107.49	1088.62	1068.85
49900 kPa, m1 = 1.06	1063.86	1053.35	1040.18	1025.08	1008.02	989.18	968.88	947.07
49900 kPa, m1 = 3.15	1141.9	1130.16	1116.68	1101.91	1085.49	1067.79	1048.45	1028.19
49900 kPa, m1 = 4.49	1185.09	1172.93	1159.38	1144.58	1128.56	1111.34	1092.74	1073.32
59900 kPa, m1 = 1.06	1067.62	1057.01	1043.91	1028.91	1012.1	993.52	973.66	952.36
59900 kPa, m1 = 3.15	1145.28	1133.6	1120.15	1105.38	1089.26	1071.77	1052.77	1032.84
59900 kPa, m1 = 4.49	1188.28	1176.14	1162.56	1147.95	1132.08	1115.08	1096.73	1077.68
68400 kPa, m1 = 1.06	1070.84	1060.07	1047.14	1032.17	1015.46	997.11	977.57	956.79
68400 kPa, m1 = 3.15	1148.2	1136.35	1123.07	1108.37	1092.3	1075	1056.27	1036.57
68400 kPa, m1 = 4.49	1191.12	1178.8	1165.39	1150.77	1135	1118.18	1100.1	1081.18
